Series [1] in a line: Pharmacokinetic assay in mice, blood-brain barrier penetration analysis (Kp). The format is in vivo. Particulars: male, mouse, ICR mice, PO single dose 10 mg/kg, brain vs plasma, read-out: Kp (4 h after administration). The method, then: The purpose of this trial is to study the pharmacokinetic behavior of some compounds of the present invention, and the administration method is: ICR mice were orally administered (PO) a single dose, at a dose of 10 mg/kg.
ICR mice male N=3 original source: Shanghai Sippr-Bk Lab Animal Co., Ltd.
The compounds were weighed and dissolved in 20% PG+10% Solutol HS15+70% pH 3 citrate buffer, respectively, shaken well and sonicated to prepare colorless clear solutions. 9 mice were administered orally after an overnight fast. The dose was 10 mg/kg.
• 1) About 90 μL blood was collected via the submandibular vein per time point, heparin sodium anticoagulant was added, the sample was placed on ice after collection, and plasma was centrifuged within 1 hour (centrifugation conditions: 8,000 rpm, 6 minutes, 2-8° C.). • 2) The blood collection time points were 1, 4, and 24 h. The samples were stored in a refrigerator at −20° C. • 3) The plasma sample was 40 μL, 160 μL of ice-cold acetonitrile containing internal standard was added, vortexed for 3 minutes, and centrifuged at 11,000 rpm for 5 minutes. • 4) 100 μL of the supernatant was taken and added to 100 μL of water, 5 μL of the sample was taken and injected into LC/MS/MS for analysis.
AUC or concentration in brain or plasma measured by using the above method was used to calculate the Kp. Kp refers to the relationship between drug concentrations in brain and blood and is used to evaluate the ability of a drug to penetrate the blood-brain barrier. Post-dose Kp was calculated by the following formula: […]

The test system of series [2] is HCT116 MTAP wild-type cells. Briefly: Human colon cancer HCT116 cell proliferation inhibition test (CellTiter-Glo, 6 days), MTAP wild-type cells. Type of series: cell-based. The settings on record: HCT-116, 144 h. The method, then: 1. HCT116 MTAP knockout and MTAP wild-type cells were plated in 96-well flat bottom plates, and cultured overnight with McCoy's 5A medium containing 10% fetal bovine serum+1% penicillin-streptomycin at 37° C. and 5% CO2.
2. On the next day, the compound was dissolved with DMSO, diluted with DMSO and medium successively and transferred to the cell plate. The final concentration of the compound was 10 μM, the compound was diluted 4 times, with 9 concentration gradients, and DMSO control was added.
3. Cells that have not been treated with the compound were removed. CellTiter-Glo Luminescent Cell Viability Assay (Promega) was used to detect cell viability, the operation was performed with reference to the package insert of the kit, and then the cell plate was placed on EnVision Multilabel Reader to detect the cold light signal.
4. Meanwhile, the cell plate treated with the compound was cultured at 37° C. and 5% CO2 for 6 consecutive days.
5. Then, CellTiter-Glo was also used to detect cell viability.
6. Finally, the four-parameter dose-response curve module of GraphPad Prism v 9.2.0 software was used to plot the dose-response curve and calculate the IC50 for proliferation inhibition (unit: nM).

In series [3] the test system is HCT116 MTAP knockout cells. Briefly: Human colon cancer HCT116 cell proliferation inhibition test (CellTiter-Glo, 6 days), MTAP knockout cells. The format is cell-based. The settings on record: HCT-116, 144 h. The method in brief: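 Cells seeded overnight in McCoy's 5A with 10% FBS, then exposed to compound from 10 μM top concentration, 4-fold dilutions, 9 points, for 6 days at 37 °C, 5% CO2. Viability by CellTiter-Glo luminescence; IC50 from 4-parameter dose-response curve.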
(In general: In ATP-based viability assays light output follows the ATP content of the culture.)

Regarding `Nc1nc2ccc(C(=O)N(CC3CC3)[C@@H]3COc4cc(C(F)(F)F)ccc43)cc2c2cnccc12` [Example 192, (S)-5-amino-N-(cyclopropylmethyl)-N-(6-(trifluoromethyl)-2,3-dihydrobenzofuran-3-yl)benzo[c][2,6]naphthyridin-9-carboxamide], in series [1], the Kp at 4 h turned out to be 0.4. Moreover, the values for the IC50 in series [2] and in series [3] were 79 nM and 3.6 nM, respectively.

`Nc1nc2ccc(C(=O)N(CC3CC3)[C@@H]3CCc4cc(C(F)(F)F)ccc43)cc2c2cnccc12` [Example 219, (R)-5-amino-N-(cyclopropylmethyl)-N-(5-(trifluoromethyl)-2,3-dihydro-1H-inden-1-yl)benzo[c][2,6]naphthyridin-9-carboxamide]: in series [1], the Kp at 4 h is 0.5. Also, the IC50 – broadly, the midpoint of a concentration-inhibition curve – in series [2] was 1560 nM; in series [3] it was 35 nM.

For the molecule `Cn1cc(N(C(=O)c2cc3c(cc2F)nc(N)c2cnn(C)c23)[C@@H]2CCc3cc(C(F)(F)F)ccc32)cn1` [Example 229, (R)-4-amino-7-fluoro-1-methyl-N-(1-methyl-1H-pyrazol-4-yl)-N-(5-(trifluoromethyl)-2,3-dihydro-1H-inden-1-yl)-1H-pyrazolo[4,3-c]quinolin-8-carboxamide], the IC50 in series [2] is 61 nM; in series [3], 3 nM.

As for `Cc1cc2nc(N)c3ccncc3c2cc1C(=O)N(CC1CC1)[C@@H]1COc2nc(C(F)(F)F)ccc21` [Example 230, (S)-5-amino-N-(cyclopropylmethyl)-8-methyl-N-(6-(trifluoromethyl)-2,3-dihydrofuro[2,3-b]pyridin-3-yl)benzo[c][2,6]naphthyridin-9-carboxamide], the IC50 in series [2] is 145 nM; in series [3], 13 nM.

Consider `Nc1nc2cc(F)c(C(=O)N(CC3CC3)[C@@H]3COc4nc(C(F)(F)F)ccc43)cc2c2cnccc12` [Example 231, (S)-5-amino-N-(cyclopropylmethyl)-8-fluoro-N-(6-(trifluoromethyl)-2,3-dihydrofuro[2,3-b]pyridin-3-yl)benzo[c][2,6]naphthyridin-9-carboxamide], for which the IC50 turned out to be 604 nM in series [2] and 15 nM in series [3].

For the molecule `Nc1nc2cc(Cl)c(C(=O)N(CC3CC3)[C@@H]3COc4nc(C(F)(F)F)ccc43)cc2c2cnccc12` [Example 232, (S)-5-amino-8-chloro-N-(cyclopropylmethyl)-N-(6-(trifluoromethyl)-2,3-dihydrofuro[2,3-b]pyridin-3-yl)benzo[c][2,6]naphthyridin-9-carboxamide], the IC50 in series [2] was found to be 363 nM; in series [3], 10 nM.

Consider `Cc1cc2nc(N)c3ccncc3c2cc1C(=O)N(CC1CC1)[C@@H]1COc2cc(C(F)(F)F)ccc21` [Example 233, (S)-5-amino-N-(cyclopropylmethyl)-8-methyl-N-(6-(trifluoromethyl)-2,3-dihydrobenzofuran-3-yl)benzo[c][2,6]naphthyridin-9-carboxamide], for which the Kp at 4 h in series [1] was 0.4. For the same molecule, the IC50 in series [2] turned out to be 102 nM; in series [3] it was 33 nM.

On to `Nc1nc2cc(F)c(C(=O)N(CC3CC3)[C@@H]3COc4cc(C(F)(F)F)ccc43)cc2c2cnccc12` [Example 234, (S)-5-amino-N-(cyclopropylmethyl)-8-fluoro-N-(6-(trifluoromethyl)-2,3-dihydrobenzofuran-3-yl)benzo[c][2,6]naphthyridin-9-carboxamide], for which, in series [1], the Kp at 4 h was found to be 0.7. Further, the values for the IC50 in series [2] and in series [3] were 224 nM and 20 nM, respectively.

In the case of `Nc1nc2cc(Cl)c(C(=O)N(CC3CC3)[C@@H]3COc4cc(C(F)(F)F)ccc43)cc2c2cnccc12` [Example 235, (S)-5-amino-8-chloro-N-(cyclopropylmethyl)-N-(6-(trifluoromethyl)-2,3-dihydrobenzofuran-3-yl)benzo[c][2,6]naphthyridin-9-carboxamide], the Kp at 4 h in series [1] was 0.7. The IC50 came out at 176 nM in series [2] and 21 nM in series [3].

As to `Cc1cc2nc(N)c3ccncc3c2cc1C(=O)N(CC1CC1)[C@@H]1CCc2nc(C(F)(F)F)ccc21` [Example 236, (R)-5-amino-N-(cyclopropylmethyl)-8-methyl-N-(2-(trifluoromethyl)-6,7-dihydro-5H-cyclopenta[b]pyridin-5-yl)benzo[c][2,6]naphthyridin-9-carboxamide], the IC50 was determined as 227 nM in series [2] and 9 nM in series [3].

With `Nc1nc2cc(F)c(C(=O)N(CC3CC3)[C@@H]3CCc4nc(C(F)(F)F)ccc43)cc2c2cnccc12` [Example 237, (R)-5-amino-N-(cyclopropylmethyl)-8-fluoro-N-(2-(trifluoromethyl)-6,7-dihydro-5H-cyclopenta[b]pyridin-5-yl)benzo[c][2,6]naphthyridin-9-carboxamide], the IC50 in series [2] was 788 nM; in series [3], 20 nM.

With `Nc1nc2cc(Cl)c(C(=O)N(CC3CC3)[C@@H]3CCc4nc(C(F)(F)F)ccc43)cc2c2cnccc12` [Example 238, (R)-5-amino-8-chloro-N-(cyclopropylmethyl)-N-(2-(trifluoromethyl)-6,7-dihydro-5H-cyclopenta[b]pyridin-5-yl)benzo[c][2,6]naphthyridin-9-carboxamide], the IC50 amounted to 264 nM in series [2] and 14 nM in series [3].

As for `CCN(C(=O)c1cc2c(cc1F)nc(N)c1cnn(C)c12)C1CCc2cc(C(F)(F)F)ccc21` (stereo not drawn) [Reference Compound 1, reference compound], the IC50 in series [2] was determined as 696 nM; in series [3] it was 54 nM.

Take `CN(C(=O)c1ccc2nc(N)c3ccncc3c2c1)[C@@H]1COc2cc(C(F)(F)F)ccc21` [Reference Compound 2, reference compound]: in series [1], the Kp at 4 h was found to be 0.1. Further, the IC50 in series [2] stood at 702 nM; in series [3], 25 nM.

Regarding `Cn1cc(N(Cc2ccc(C(F)(F)F)cn2)C(=O)c2cc3c(cc2F)nc(N)c2cnn(C)c23)cn1` [compound 3, reference compound], the half-maximal inhibitory concentration (IC50) in series [2] is 278 nM; in series [3], 9 nM.

The values are drawn from patent US20250320202A1, “PRMT5 INHIBITOR, PREPARATION METHOD THEREFOR, AND PHARMACEUTICAL USE THEREOF” (Abbisko Therapeutics Co., Ltd., priority 2022, published 2025).
